According to ChEMBL document CHEMBL4651402, “Screening of ~5500 FDA-approved drugs and clinical candidates for anti-SARS-CoV-2 activity” (2021):

Test system: SARS-CoV-2
Assay: microbe, parasite or virus in culture
Conditions: Severe acute respiratory syndrome coronavirus 2, Vero C1008, 48 h

SMILES	IC50 [µM]	IC50 (read-out: pIC50 (converted)) [µM]
COc1c2ccoc2cc2oc(=O)ccc12 [BERGAPTEN]	> 20	> 20
Cc1ccc2c(c1)CC(=O)c1cc(C(C)C(=O)O)ccc1O2 (stereo unspecified) [BERMOPROFEN]	> 20	> 20
N[C@@H]1CCCCN(c2c(F)cc3c(=O)c(C(=O)O)cn(C4CC4)c3c2Cl)C1 [BESIFLOXACIN]	> 20	> 20
Nc1ncc2ncn(CC3(OCP(=O)(O)O)CC3)c2n1 [BESIFOVIR]	> 20	> 20
COc1cc2c(c(OC)c1OC)-c1c(cc3c(c1OC)OCO3)C[C@H](C)[C@@](C)(O)C2 [BESIGOMSIN]	> 20	> 20
CC[C@H](CC[C@@H](C)[C@H]1CC[C@H]2[C@@H]3CC=C4C[C@@H](O)CC[C@]4(C)[C@H]3CC[C@]12C)C(C)C [BETA-SITOSTEROL]	> 20	> 20
CC[C@H](OC(C)=O)C(C[C@@H](C)N(C)C)(c1ccccc1)c1ccccc1 [BETACETYLMETHADOL]	> 20	> 20
OC[C@H]1O[C@@H]2O[C@H]3[C@H](O)[C@@H](O)[C@@H](O[C@H]4[C@H](O)[C@@H](O)[C@@H](O[C@H]5[C@H](O)[C@@H](O)[C@@H](O[C@H]6[C@H](O)[C@@H](O)[C@@H](O[C@H]7[C@H](O)[C@@H](O)[C@@H](O[C@H]8[C@H](O)[C@@H](O)[C@@H](O[C@H]1[C@H](O)[C@H]2O)O[C@@H]8CO)O[C@@H]7CO)O[C@@H]6CO)O[C@@H]5CO)O[C@@H]4CO)O[C@@H]3CO [BETADEX]	> 20	> 20
CNCCc1ccccn1 [BETAHISTINE]	> 20	> 20
C[N+](C)(C)CC(=O)O [BETAINE]	> 20	> 20
CC[C@H](O)C(C[C@@H](C)N(C)C)(c1ccccc1)c1ccccc1 [BETAMETHADOL]	> 20	> 20
CCC(=O)OCC(=O)[C@@]1(OC(=O)CC)[C@@H](C)C[C@H]2[C@@H]3CCC4=CC(=O)C=C[C@]4(C)[C@@]3(F)[C@@H](O)C[C@@]21C [BETAMETHASONE DIPROPIONATE]	> 20	> 20
O=C(O)CCNC(=O)c1ccccc1 [BETAMIPRON]	> 20	> 20
Oc1ccc2ccccc2c1 [BETANAPHTHOL]	> 20	> 20
CC(C)NCC(O)COc1ccc(CCOCC2CC2)cc1 (stereo unspecified) [BETAXOLOL]	> 20	> 20
NCCc1cc[nH]n1 [BETAZOLE]	> 20	> 20
CC(C[N+](C)(C)C)OC(N)=O (stereo unspecified) [BETHANECHOL]	> 20	> 20
COc1ccc(NC(=O)c2ccc(C(=N)N(C)C)cc2)c(C(=O)Nc2ccc(Cl)cn2)c1 [BETRIXABAN]	> 20	> 20
C=C(C)[C@@H]1CC[C@]2(CO)CC[C@]3(C)[C@H](CC[C@@H]4[C@@]5(C)CC[C@H](O)C(C)(C)[C@@H]5CC[C@]43C)[C@@H]12 [BETULIN]	> 20	> 20
COc1ccc(CCNCC(O)COc2cccc(C)c2)cc1OC (stereo unspecified) [BEVANTOLOL]	> 20	> 20
C=C(C)[C@@H]1CC[C@]2(C(=O)O)CC[C@]3(C)[C@H](CC[C@@H]4[C@@]5(C)CC[C@H](OC(=O)CC(C)(C)C(=O)O)C(C)(C)[C@@H]5CC[C@]43C)[C@@H]12 [BEVIRIMAT]	> 20	> 20

SMILES	IC50 [µM]	IC50 (read-out: pIC50 (converted)) [µM]
C=C(c1ccc(C(=O)O)cc1)c1cc2c(cc1C)C(C)(C)CCC2(C)C [BEXAROTENE]	> 20	> 20
CC(C)(Oc1ccc(CCNC(=O)c2ccc(Cl)cc2)cc1)C(=O)O [BEZAFIBRATE]	> 20	> 20
COc1ccc(-c2ccc3ncc4c(c3c2)n(-c2ccc(N3CCNCC3)c(C(F)(F)F)c2)c(=O)n4C)cn1 [BGT-226 FREE BASE]	> 20	> 20
CC(O)(CS(=O)(=O)c1ccc(F)cc1)C(=O)Nc1ccc(C#N)c(C(F)(F)F)c1 (stereo unspecified) [BICALUTAMIDE]	> 20	> 20
Cc1ccc(C23CNCC2C3)cc1 (stereo unspecified) [BICIFADINE]	> 20	> 20
CN1CCc2cc3c(cc2[C@H]1[C@@H]1OC(=O)c2c1ccc1c2OCO1)OCO3 [BICUCULLINE]	> 20	> 20
CCN(CC)CCOC(=O)C(c1ccccc1)N1CCCCC1 (stereo unspecified) [BIETAMIVERINE]	> 20	> 20
c1ccc(-c2ccc(C(c3ccccc3)n3ccnc3)cc2)cc1 (stereo unspecified) [BIFONAZOLE]	> 20	> 20
COc1c(C)cnc(Cn2cnc3c(Cl)nc(N)nc32)c1C [BIIB021]	> 20	> 20
C=CC1=C(C)/C(=C/c2[nH]c(Cc3[nH]c(/C=C4\NC(=O)C(C)=C4C=C)c(C)c3CCC(=O)O)c(CCC(=O)O)c2C)NC1=O [BILIRUBIN]	> 20	> 20
CCN1c2ncc(CCOc3cc[n+]([O-])c4ccccc34)cc2C(=O)N(C)c2cccnc21 [BILR 355]	> 20	> 20
Nc1cc(C(F)(F)F)c(-c2nc(N3CCOCC3)nc(N3CCOCC3)n2)cn1 [BIMIRALISIB]	> 20	> 20
O=C(O)Cc1cccc(-c2cc(CCCCCCc3ccc(O[C@H]4O[C@H](CO)[C@@H](O)[C@H](O)[C@@H]4O)c(-c4cccc(CC(=O)O)c4)c3)ccc2O[C@H]2O[C@H](CO)[C@@H](O)[C@H](O)[C@@H]2O)c1 [BIMOSIAMOSE]	> 20	> 20
Cn1cnc2c(F)c(Nc3ccc(Br)cc3F)c(C(=O)NOCCO)cc21 [BINIMETINIB]	> 20	> 20
Cc1sc2c(c1C)C(c1ccc(Cl)cc1)=N[C@@H](CC(=O)Nc1ccc(O)cc1)c1nnc(C)n1-2 [BIRABRESIB]	> 20	> 20
CC[C@H](NC(=O)[C@H](C)NC)C(=O)N1C[C@@H](O)C[C@H]1Cc1c(-c2[nH]c3cc(F)ccc3c2C[C@@H]2C[C@H](O)CN2C(=O)[C@H](CC)NC(=O)[C@H](C)NC)[nH]c2cc(F)ccc12 [BIRINAPANT]	> 20	> 20
CC(=O)Oc1ccc(C(c2ccc(OC(C)=O)cc2)c2ccccn2)cc1 [BISACODYL]	> 20	> 20
CC(C)(C)CC(C)(C)c1cc(Cc2cc(C(C)(C)CC(C)(C)C)cc(-n3nc4ccccc4n3)c2O)c(O)c(-n2nc3ccccc3n2)c1 [BISOCTRIZOLE]	> 20	> 20
CC(C)NCC(O)COc1ccc(COCCOC(C)C)cc1 (stereo unspecified) [BISOPROLOL]	> 20	> 20
[O-][S+](c1cc(Cl)cc(Cl)c1O)c1cc(Cl)cc(Cl)c1O [BITHIONOLOXIDE]	> 20	> 20
Oc1c(Cl)cc(Cl)cc1Sc1cc(Cl)cc(Cl)c1O [BITHIONOL]	> 20	> 20

SMILES	IC50 [µM]	IC50 (read-out: pIC50 (converted)) [µM]
CC(C)(C)c1cnc(CSc2cnc(NC(=O)C3CCNCC3)s2)o1 [BMS-387032]	> 20	> 20
COc1cccc(Nc2ncnn3ccc(CN4CC[C@@H](N)[C@H](O)C4)c23)c1 [BMS-690514]	> 20	> 20
Cn1c(N2CCCCS2(=O)=O)nc(C(=O)NCc2ccc(F)cc2)c(O)c1=O [BMS-707035]	> 20	> 20
CCOc1ccn(-c2ccc(F)cc2)c(=O)c1C(=O)Nc1ccc(Oc2ccnc(N)c2Cl)c(F)c1 [BMS-777607]	> 20	> 20
CCn1c(C(=O)N(C2CC2)C2CC2)cc2c3c(ncn3C)c(Nc3cc(C)n(C)n3)nc21 [BMS-911543]	> 20	> 20
Cc1c(-c2c(F)cc(C(N)=O)c3[nH]c4c(c23)CC[C@H](C(C)(C)O)C4)cccc1-n1c(=O)c2cccc(F)c2n(C)c1=O [BMS-986142]	> 20	> 20
OC(CCCN1CCN(c2ncc(F)cn2)CC1)c1ccc(F)cc1 (stereo unspecified) [BMY-14802]	> 20	> 20
CC(C)(C)NC(=O)N[C@H](C(=O)N1C[C@H]2[C@@H]([C@H]1C(=O)NC(CC1CCC1)C(=O)C(N)=O)C2(C)C)C(C)(C)C (stereo partly specified) [BOCEPREVIR]	> 20	> 20
COc1ccccc1Oc1c(NS(=O)(=O)c2ccc(C(C)(C)C)cc2)nc(-c2ncccn2)nc1OCCO [BOSENTAN]	> 20	> 20
COc1cc(Nc2c(C#N)cnc3cc(OCCCN4CCN(C)CC4)c(OC)cc23)c(Cl)cc1Cl [BOSUTINIB]	> 20	> 20
CC#CC(=O)N[C@H]1CCCN(c2c(F)cc(C(N)=O)c3[nH]c(C)c(C)c23)C1 [BRANEBRUTINIB]	> 20	> 20
Cc1nc(COc2ccc(C[C@H](NC(=O)O[C@H]3CO[C@H]4OCC[C@H]43)[C@H](O)CN(CC(C)C)S(=O)(=O)c3ccc4c(c3)OCO4)cc2)cs1 [BRECANAVIR]	> 20	> 20
CCC12CCN(CC3(O)CC3)C(Cc3ccc(O)cc31)C2(C)C (stereo unspecified) [BREMAZOCINE]	> 20	> 20
CC(C)(C)OC(=O)c1ncn2c1[C@@H]1CCCN1C(=O)c1c(Br)cccc1-2 [BRETAZENIL]	> 20	> 20
CC[N+](C)(C)Cc1ccccc1Br [BRETYLIUM]	> 20	> 20
Brc1c(NC2=NCCN2)ccc2nccnc12 [BRIMONIDINE]	> 20	> 20
CCN[C@H]1CN(CCCOC)S(=O)(=O)c2sc(S(N)(=O)=O)cc21 [BRINZOLAMIDE]	> 20	> 20
Cc1cc2c(F)c(Oc3ncnn4cc(OC[C@@H](C)OC(=O)[C@H](C)N)c(C)c34)ccc2[nH]1 [BRIVANIB ALANINATE]	> 20	> 20
Cc1cc2c(F)c(Oc3ncnn4cc(OC[C@@H](C)O)c(C)c34)ccc2[nH]1 [BRIVANIB]	> 20	> 20
CCC[C@@H]1CC(=O)N([C@@H](CC)C(N)=O)C1 [BRIVARACETAM]	> 20	> 20
O=c1[nH]c(=O)n([C@H]2C[C@H](O)[C@@H](CO)O2)cc1/C=C/Br [BRIVUDINE]	> 20	> 20
